We go through six molecules from US6893829B2, “Human leukocyte 12-lipoxygenase and its role in the pathogenesis of disease states” (City of Hope, priority 1992, dated 2005).

One data set relates to PVSMC. Kind of data set: PVSMC DNA synthesis (3H thymidine incorporation). Format: cell-based, porcine. The note with it: 2.5 ng/ml. The protocol:
(§1) The cells were cultured in DME (normal glucose) and treated for 24 hours±cytokines in medium containing 0.2% BSA and 0.4% serum. Intracellular 12-LO enzyme activity was measured by HPLC, leukocyte-type 12-LO protein expression by immunoblotting and 12-LO mRNA by a specific reverse transcriptase polymerase chain reaction (RT-PCR). […] Treatment with these cytokines (0.5-5 ng/ml) also led to an increase (1.4-2.5-fold) in 12-LO protein expression 72 kD). In addition, all three cytokines (2.5 ng/ml) could induce a significant increase in PVSMC DNA synthesis (1.280.08, 1.67±0.11 and 1.3±0.07 fold increase in ^3H thymidine incorporation with IL-1, -4, and -8 respectively, p<0.01).

The subject of data set [1] is leukocyte-type 12-LO in PVSMC. Kind of data set: 12-LO activity, mRNA and protein in PVSMC. Format: cell-based, porcine. The note with it: 24 hours; for increase in 12-HETE HPLC peak (12-LO enzyme activity): 2.5 ng/ml; for 12-LO mRNA expression in PVSMC: FIG. 14. The protocol:
FIG. 14A illustrates the dose-dependent effect of the cytokine interleukin-1β on 12-LO mRNA expression in porcine aortic smooth muscle cells (PVSMC). Confluent PVSMC growth in normal glucose medium was serum depleted for 24 hours by placing in medium+0.2% BSA+0.4% FCS. This medium was then freshly replaced along with IL-1β and the cells incubated for a further 24 hours. At the end of the incubation, total RNA was extracted from the cells using RNA-STAT. This RNA was the subjected to reverse-transcriptase polymerase chain reaction (RT-PCR) to detect and quantitate leukocyte-type 12-LO mRNA (333 bp PCR product, upper panel) using our well established techniques. The expression of GAPDH mRNA 284 bp, lower panel) was used as an internal control for PCR and for quantitation.
FIG. 14B illustrates the effect of the cytokine IL-4 on 12-LO mRNA expression in PVSMC. The ells were treated for 24 hours with IL-4 and 12-LO mRNA quantitated as described in the legend to FIG. 14A. It is clearly seen that IL-4 also increases 12-LO mRNA expression similar to IL-1β.
FIG. 14C illustrates the effect of the cytokine IL-8 on 12-LO mRNA expression in PVSMC. The cells were treated for 24 hours with IL-8 and 12-LO mRNA quantitated as described under legend 14A.
as §1

The next data set concerns the target leukocyte 12-LO (Sus scrofa, UniProt P16469). The settings on record: reference 55; cited from earlier work.
Another data set relates to RINm5F cells. Kind of data set: DNA synthesis (3H-thymidine incorporation) in RINm5F cells. The data set is classed as cell-based, rat. The note with it: 24 hours, 12-HETE 10^−9M. The protocol:
FIG. 11 illustrates the effects of 12-LO products on DNA synthesis in the insulin-producing rat beta cell line, RINm5F. DNA synthesis was studied using ^3H-thymidine incorporation (luCi/ml) added for the last six hours (18-24 hours of experiment). The LO products were added to the cells in complete growth media for 24 hours.
(§2) Applicants have discovered that direct addition of the 12-LO products 12-S-HETE or 12-HPETE directly decreases cellular growth as reflected by decreased ^3H thymidine incorporation or DNA synthesis in the rat pure beta cell line RIN-M5F.
For orientation: Uptake of a labelled nucleoside into DNA is a usual measure of proliferation.

The next data set has as its system VEGF protein in AIHSMC. In words: VEGF protein expression in immortalized human aortic smooth muscle cell line (AIHSMC). Format: cell-based. The note with it: five hours. How it is done: FIG. 10 illustrates the effect of a 12-lipoxygenase product 12-HPETE on VEGF protein (42 kD) expression in an immortalized human aortic smooth muscle cell line (AIHSMC). The cells were serum starved for 24 hours and then placed in fresh medium along with 12-HPETE. Cells were incubated for five hours and VEGF protein was then identified in cell lysed as described in the legend to FIG. 8.

Data set [2] concerns 12-LO product formation in PVSMC. Kind of data set: 12-HETE in PVSMC cultured in glucosamine (RIA). The data set is classed as cell-based, porcine. The settings on record: glucosamine 7.5 mM. How it is done:
Porcine vascular smooth muscles cells (PVSMC) were cultured in the presence of glucosamine (7.5 mM) for 24 hours. New media was then added with glucosamine (7.5 mM) for 25 minutes. The cells and media above the cells were collected and 12-HETE was measured using RIA. A very large increase in 12-HETE release into the media in cells cultured in glucosamine compared to those in normal glucose (6.48±1.2 pg/ml 12-HETE release in normal glucose vs. 20.6±3.6 pg/ml released in glucosamine n=4) was observed. Furthermore, cell associated 12-HETE was higher in glucosamine treated cells (735.9±67 pg/cell incubate normal glucose vs. 1225±112 pg in glucosamine).

For another data set, the system named is 12-LO in RINm5F cells. In words: 12-LO protein, mRNA and activity in RINm5F cells. Format: cell-based, rat. How it is done:
FIG. 12 illustrates a western immunoblot of proteins isolated from the insulin producing rat beta cell line, RINm5F showing the effect of interleukin-1β on 12-LO protein expression. In these studies, 25 μg of protein was isolated from the cells grown for 16 hours in reduced serum-containing medium 0.4% alone or along with IL-1β (0.1 ng/ml).
as §2
(§3) It has been discovered that IL-1β induces 12-LO protein and mRNA expression in RIN-M5F cells and 12-LO mRNA expression in rat islets.

In data set [3] the test system is 12-LO in rat pancreatic islets. Kind of data set: 12-HETE production and 12-LO mRNA in rat pancreatic islets. Format: cell-based.
Source text: as §2, §3

Chain of leukocyte 12-LO (P16469 whole entry): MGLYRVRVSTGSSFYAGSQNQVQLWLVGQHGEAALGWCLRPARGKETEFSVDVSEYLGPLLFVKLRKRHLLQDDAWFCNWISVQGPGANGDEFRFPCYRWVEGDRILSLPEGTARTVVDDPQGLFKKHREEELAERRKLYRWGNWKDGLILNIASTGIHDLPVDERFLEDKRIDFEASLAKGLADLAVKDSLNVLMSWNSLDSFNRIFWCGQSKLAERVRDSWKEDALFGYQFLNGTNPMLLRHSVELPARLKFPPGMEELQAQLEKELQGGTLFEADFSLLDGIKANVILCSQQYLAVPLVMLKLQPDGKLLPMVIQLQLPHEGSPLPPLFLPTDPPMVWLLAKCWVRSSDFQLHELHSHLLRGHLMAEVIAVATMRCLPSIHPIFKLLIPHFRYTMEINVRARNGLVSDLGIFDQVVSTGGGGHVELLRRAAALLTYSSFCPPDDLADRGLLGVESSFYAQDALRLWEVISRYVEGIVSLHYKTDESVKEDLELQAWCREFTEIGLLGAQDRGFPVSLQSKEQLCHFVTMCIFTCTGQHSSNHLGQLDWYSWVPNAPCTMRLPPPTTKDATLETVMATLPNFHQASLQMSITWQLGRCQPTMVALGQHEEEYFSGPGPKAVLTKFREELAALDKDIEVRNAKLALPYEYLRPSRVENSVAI

IL-4: cytokine IL-4: the “increase in 3H thymidine incorporation” value with PVSMC is reported as 1.67±0.11 fold. In data set [1], the “increase in 12-HETE HPLC peak (12-LO enzyme activity)” value (from here on “increase in 12-HETE HPLC peak”) is recorded as 43% and the “12-LO mRNA expression in PVSMC” value is reported as “increases”.

In the case of `C=C[C@H](O)C#CC#CC/C=C\CCCCCCC` [Panaxynol], the “inhibition of leukocyte 12-LO” value at leukocyte 12-LO is given as “relatively selective inhibitor”.

For the molecule `CCCCC/C=C\CC(/C=C/C=C\C/C=C\CCCC(=O)O)OO` (stereo not shown) [12-HPETE, 12-Hydroperoxyeicosatetraenoic Acid], in the data set with RINm5F cells, the “3H-thymidine incorporation (DNA synthesis)” value was “reduced”. Besides, the “VEGF protein (42 kD) expression” value in the data set on VEGF protein in AIHSMC is on record as “causes an increase”.

On to IL-8: cytokine IL-8, for which, in the data set on PVSMC, the “increase in 3H thymidine incorporation” value worked out at 1.3±0.07 fold. In data set [1], the “increase in 12-HETE HPLC peak” value is 36% and the “12-LO mRNA expression in PVSMC” value is listed as “dose-dependent increase”.

Take `N[C@H]1C(O)O[C@H](CO)[C@@H](O)[C@@H]1O` (stereo partly shown) [glucosamine]: the “12-HETE release into the media” value in data set [2] (normal glucose 6.48±1.2) came out at 20.6 ± 3.6 pg/mL. Moreover, the “cell associated 12-HETE” value in data set [2] (normal glucose 735.9±67 pg/cell incubate) amounted to 1225 ± 112 pg.

For the molecule IL-1β: cytokine interleukin-1β, in the data set on 12-LO in RINm5F cells (IL-1β 0.1 ng/ml, 16 hours), the “increase in 12-LO protein expression” value amounted to 2 fold. The “12-LO pathway activity (radioimmunoassay for 12-HETE)” value in the data set with 12-LO in RINm5F cells (RIN-M5F) is “increased 12-LO pathway activity”. Also, the “12-LO mRNA expression (competitive PCR)” value in the data set on 12-LO in RINm5F cells (RIN-M5F, 16 hours) is reported as “concomitant increase”. In addition, the “increase in leukocyte 12-LO protein expression” value in the data set on 12-LO in RINm5F cells (human IL-1B at 0.2 ng) is “approximately two”. For the same molecule, in data set [3], the “12-LO mRNA and enzyme activity in purified Sprague-Dawley rat islets” value was “increased expression of 12-LO mRNA and enzyme activity”. In data set [3] (IL-1B 2.5 ng/ml, basal 92), the “immunoreactive release of 12-S-HETE” value is 250 pg/ml/40 islets. Besides, in data set [1], the “increase in 12-HETE HPLC peak” value was found to be 51% and the “12-LO mRNA expression in PVSMC” value is given as “dose-dependent increase”.
